Assay results as given in patent US11485742B2, “2-azaspiro[3.4]octane derivatives as M4 agonists” (NOVARTIS AG, priority 2019, dated 2022).

Columns and labels:
Assay type in all cases: cell-based
[1] = target: T1, human cloned CHRM2 receptor (Homo sapiens, UniProt P08172); assay: CHRM2 Ca++ Flux Assay (M2_CHO cells, agonist mode); details: M2 CHO cells; for EC50: agonist mode, geometric mean if tested more than once, read-out: M2 FDSS EC50; for Emax: read-out: M2 FDSS PA %
T1 construct: expressed in transfected cells; host or cells: CHO-K1 (M2_CHO)
T1 sequence (P08172 1-466): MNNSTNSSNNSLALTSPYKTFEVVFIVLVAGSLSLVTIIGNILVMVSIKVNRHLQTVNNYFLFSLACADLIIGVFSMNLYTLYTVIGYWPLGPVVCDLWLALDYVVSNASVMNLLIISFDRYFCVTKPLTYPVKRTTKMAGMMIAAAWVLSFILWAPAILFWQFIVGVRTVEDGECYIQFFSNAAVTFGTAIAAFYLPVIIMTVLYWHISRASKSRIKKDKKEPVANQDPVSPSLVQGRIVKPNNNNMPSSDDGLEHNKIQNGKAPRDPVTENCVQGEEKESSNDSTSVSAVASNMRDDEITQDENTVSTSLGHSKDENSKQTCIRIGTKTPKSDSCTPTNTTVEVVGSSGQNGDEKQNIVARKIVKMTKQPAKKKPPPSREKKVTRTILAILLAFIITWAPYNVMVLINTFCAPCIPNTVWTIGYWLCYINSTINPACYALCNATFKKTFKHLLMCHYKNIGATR
Procedure: (§1) The above examples were characterized by measuring the intracellular mobilization of Ca^++ ions caused by signaling events mediated by the receptor. The Intra-cellular Calcium flux levels were captured by the highly sensitive Ca^++ indicator, Calcium Assay Kit (BD Biosciences; Catalog Number 640178. The fluorescent activity from all receptors were monitored by the fluorescent imager, FDSS 7000EX (Hamamatsu) over a span of 3 minutes. The change in Calcium flux was readily captured upon activation with the muscarinic orthosteric agonist, Carbachol.
(§2) CHO-K1 cells stably expressing the human cloned CHRM2 receptor (M2_CHO cells) were grown and maintained in a monolayer culture with F12/HAM (Life Technologies) supplemented with 10% Fetal Bovine Serum, 1×Pen-Strep, and 0.4 mg/mL Geneticin in a humidified atmosphere (5% CO2) at 37° C. The cultures were grown to 80-90% confluency in T150 flasks (Corning) and washed with 1×DPBS and lifted with 0.05% Trypsin (Life Technologies). The cells were then spun (1K rpm, 3 minutes) and frozen using Recovery Cell Culture Freezing Media (Gibco Technologies). Cells were stored in liquid nitrogen and thawed a day before the assay.
Prior to the day of the assay, stable M2 CHO cells were thawed and plated on Greiner 384 well TC treated plate at a density of 12K cells/well and kept overnight in a humidified atmosphere (5% CO2) at 37° C. The following day, the cells were loaded with Ca^++ dye (BD Biosciences) using Loading Buffer (HBSS +Ca/+Mg, 20 mM HEPES, 2.5 mM Probenecid) and placed back in cell incubator for a minimum of 1 hour and maximum of 2 hours. After incubation, the dye was replaced with Assay Buffer (HBSS −Ca/−Mg, 20 mM HEPES, 2.5 mM Probenecid) supplemented with 20 μM ATP (Sigma Aldrich) and kept at room temperature for 60 minutes prior before running on cell imager. The FDSS 7000EX (Hamamatsu) was used to acquire Ca^++ traces from cells in response to compound treatment and the data was used to generate dose response curves in agonist mode. All compounds were serially diluted in DMSO then prepared in Assay Buffer for Ca^−+ flux studies. The dose response curves were generated from the average of triplicate wells obtained from each data point and used a non-linear regression of four parameter dose response algorithm. The Percent Activity (PA) was measured to EC100 of Carbachol.
(§3) If an Example was tested more than once in an assay, then the values below represent the geometric mean of the results from each independent experiment.

[2] = target: T2, human cloned CHRM5 receptor (Homo sapiens, UniProt P08912); assay: CHRM5 Ca++ Flux Assay (M5_CHO cells, agonist mode); details: for Emax: read-out: M5 FDSS PA %; for EC50: agonist mode, geometric mean if tested more than once, read-out: M5 FDSS EC50
T2 construct: expressed in transfected cells; host or cells: CHO (M5_CHO)
T2 sequence (P08912 1-532): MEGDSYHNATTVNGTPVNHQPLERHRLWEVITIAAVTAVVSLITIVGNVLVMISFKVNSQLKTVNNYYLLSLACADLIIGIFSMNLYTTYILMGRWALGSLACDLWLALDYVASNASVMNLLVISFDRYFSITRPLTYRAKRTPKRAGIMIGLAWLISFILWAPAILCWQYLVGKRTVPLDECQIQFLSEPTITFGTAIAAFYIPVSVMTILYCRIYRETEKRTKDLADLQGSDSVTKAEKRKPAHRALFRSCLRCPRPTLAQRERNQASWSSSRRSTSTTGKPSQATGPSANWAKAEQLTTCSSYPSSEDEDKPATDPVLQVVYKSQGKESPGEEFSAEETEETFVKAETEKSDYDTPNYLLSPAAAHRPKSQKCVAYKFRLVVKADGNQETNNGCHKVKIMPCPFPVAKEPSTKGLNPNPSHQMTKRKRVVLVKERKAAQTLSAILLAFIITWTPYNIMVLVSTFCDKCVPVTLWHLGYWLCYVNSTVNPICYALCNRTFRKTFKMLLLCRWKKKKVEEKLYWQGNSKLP
Procedure: as §1
as §2, with “CHRM3” for “CHRM2”, “(M3_CHO” for “(M2_CHO”, “IX Pen-Strep,” for “1×Pen-Strep,”, “assay. A similar procedure was used for cells stably expressing the human cloned CHRM5 receptor (M5_CHO).” for “assay.”
(§4) Prior to the day of the assay, stable M3_CHO or M5_CHO cells were thawed and plated on Greiner 384 well black TC treated plates at 12K cells/well in F12/DMEM supplemented with 10% FBS (Hyclone) and kept overnight in a humidified atmosphere (5% CO2) at 37° C. The next day, cells were loaded with Ca^++ dye (BD Biosciences) using Loading Buffer (HBSS +Ca/+Mg, 20 mM HEPES, 2.5 mM Probenecid) and placed back in cell incubator for a minimum of 1 hour. After incubation, the dye was replaced with Assay Buffer (HBSS −Ca/−Mg, 20 mM HEPES, 2.5 mM Probenecid) and kept at room temperature in the dark before running on cell imager. The FDSS 7000EX (Hamamatsu) was used to acquire Ca^+− traces from cells treated with 11 point dose response of compounds in triplicate in order to generate dose response curves in agonist mode. All compounds were serially diluted in DMSO then prepared in Assay Buffer for Ca^++ flux studies. The dose response curves were generated from the average of triplicate wells obtained from each data point and used a non-linear regression of four parameter dose response algorithm. The Percent Activity (PA) was measured to EC100 of Carbachol.
as §3

[3] = target: T3, human cloned CHRM3 receptor (Homo sapiens, UniProt P20309); assay: CHRM3 Ca++ Flux Assay (M3_CHO cells, agonist mode); details: for Emax: read-out: M3 FDSS PA %; for EC50: agonist mode, geometric mean if tested more than once, read-out: M3 FDSS EC50
T3 construct: expressed in transfected cells; host or cells: CHO-K1 (M3_CHO)
Procedure: as §1
as §2, with “CHRM3” for “CHRM2”, “(M3_CHO” for “(M2_CHO”, “IX Pen-Strep,” for “1×Pen-Strep,”, “assay. A similar procedure was used for cells stably expressing the human cloned CHRM5 receptor (M5_CHO).” for “assay.”
as §4, §3

[4] = Percent Activity (PA) measured to EC100 of Carbachol

T3 sequence (P20309 whole entry): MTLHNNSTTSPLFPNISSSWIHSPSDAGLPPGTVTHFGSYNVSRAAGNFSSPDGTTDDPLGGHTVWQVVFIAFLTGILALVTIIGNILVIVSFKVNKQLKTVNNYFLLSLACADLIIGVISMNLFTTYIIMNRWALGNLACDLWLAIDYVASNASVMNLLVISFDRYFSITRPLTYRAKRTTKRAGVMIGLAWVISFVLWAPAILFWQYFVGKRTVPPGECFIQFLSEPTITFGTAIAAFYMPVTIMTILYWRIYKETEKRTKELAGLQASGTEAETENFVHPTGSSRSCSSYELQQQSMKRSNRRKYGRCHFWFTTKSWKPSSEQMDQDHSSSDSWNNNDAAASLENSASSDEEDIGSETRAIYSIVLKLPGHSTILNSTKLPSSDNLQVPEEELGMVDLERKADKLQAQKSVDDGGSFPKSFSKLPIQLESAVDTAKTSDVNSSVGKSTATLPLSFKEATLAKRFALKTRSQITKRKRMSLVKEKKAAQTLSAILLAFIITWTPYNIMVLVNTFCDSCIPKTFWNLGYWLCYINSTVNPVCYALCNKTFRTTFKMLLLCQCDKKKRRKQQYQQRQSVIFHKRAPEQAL

Row | Structure (SMILES) | EC50 [1] [nM] | Emax [1, 4] [%] | Emax [2, 4] [%] | EC50 [2] [µM] | Emax [3, 4] [%] | EC50 [3] [µM] | M2 FDSS PA % [1, 4] [%] | M5 FDSS PA % [2, 4] [%] | M3 FDSS PA % [3, 4] [%]
1 | Fc1cc(F)c(O[C@@H]2CCOC2)c(C2CCN([C@@H]3COC4(C3)CN(c3nnco3)C4)CC2)c1 [Example 2CC, (S)-7-(4-(3,5-difluoro-2-(((R)-tetrahydrofuran-3-yl)oxy)phenyl)piperidin-1-yl)-2-(1,3,4-oxadiazol-2-yl)-5-oxa-2-azaspiro[3.4]octane] | 2070 | 37 | 0 | > 25 | 0 | > 25 |  |  | 
2 | CC1(C)C[C@@H](Oc2ccc(F)cc2C2CCN([C@@H]3COC4(C3)CN(c3nnco3)C4)CC2)CO1 (single isomer, unassigned) [Example 2O, (S)-7-(4-(2-(((R)-5,5-dimethyltetrahydrofuran-3-yl)oxy)-5-fluorophenyl)piperidin-1-yl)-2-(1,3,4-oxadiazol-2-yl)-5-oxa-2-azaspiro[3.4]octane or (S)-7-(4-(2-(((S)-5,5-dimethyltetrahydrofuran-3-yl)oxy)-5-fluorophenyl)piperidin-1-yl)-2-(1,3,4-oxadiazol-2-yl)-5-oxa-2-azaspiro[3.4]octane] | 581 |  |  | > 25 |  | > 25 | 37 | 0 | 0
3 | CC(C)(C#N)COc1ccc(F)cc1C1CCN([C@@H]2COC3(C2)CN(c2nnco2)C3)CC1 [Example 1E, (S)-3-(2-(1-(2-(1,3,4-oxadiazol-2-yl)-5-oxa-2-azaspiro[3.4]octan-7-yl)piperidin-4-yl)-4-fluorophenoxy)-2,2-dimethylpropanenitrile] | 557 | 32 | 0 | > 25 | 0 | > 25 |  |  | 

Continued, values first:

Row | EC50 [1] [nM] | Emax [1, 4] [%] | Emax [2, 4] [%] | EC50 [2] [µM] | Emax [3, 4] [%] | EC50 [3] [µM] | M2 FDSS PA % [1, 4] [%] | M5 FDSS PA % [2, 4] [%] | M3 FDSS PA % [3, 4] [%] | Structure (SMILES)
4 | 1920 | 48 | 0 | > 25 | 0 | > 25 |  |  |  | Fc1ccc(C2CCOCC2)c(C2CCN([C@@H]3COC4(C3)CN(c3nnco3)C4)CC2)c1 [Example 3D, (S)-7-(4-(5-fluoro-2-(tetrahydro-2H-pyran-4-yl)phenyl)piperidin-1-yl)-2-(1,3,4-oxadiazol-2-yl)-5-oxa-2-azaspiro[3.4]octane]
5 | 12700 | 31 | 0 | > 25 | 0 | > 25 |  |  |  | Fc1cc(OCC2COC2)c(C2CCN([C@@H]3COC4(C3)CN(c3ncco3)C4)CC2)cc1F [Example 4O, (S)-7-(4-(4,5-difluoro-2-(oxetan-3-ylmethoxy)phenyl)piperidin-1-yl)-2-(oxazol-2-yl)-5-oxa-2-azaspiro[3.4]octane]
6 | > 25000 | 0 | 0 | > 25 | 0 | > 25 |  |  |  | COCCOc1ccc(F)cc1C1CCN([C@@H]2COC3(C2)CN(c2ncco2)C3)CC1 [Example 4L, (S)-7-(4-(5-fluoro-2-(2-methoxyethoxy)phenyl)piperidin-1-yl)-2-(oxazol-2-yl)-5-oxa-2-azaspiro[3.4]octane]
7 | 1240 | 18 | 0 | > 25 | 0 | > 25 |  |  |  | COc1ccccc1C1CCN([C@@H]2COC3(C2)CN(c2nncs2)C3)CC1 [Example 5R, (S)-7-(4-(2-methoxyphenyl)piperidin-1-yl)-2-(1,3,4-thiadiazol-2-yl)-5-oxa-2-azaspiro[3.4]octane]
8 | > 25000 | 32 | 0 | > 25 | 0 | > 25 |  |  |  | Fc1ccc(OC[C@H]2COCCO2)c(C2CCN([C@@H]3COC4(C3)CN(c3ncco3)C4)CC2)c1 [Example 4B, (S)-7-(4-(2-(((R)-1,4-dioxan-2-yl)methoxy)-5-fluorophenyl)piperidin-1-yl)-2-(oxazol-2-yl)-5-oxa-2-azaspiro[3.4]octane]
9 | > 25000 | 0 | 0 | > 25 | 0 | > 25 |  |  |  | Fc1ccc(OC2CCOCC2)c(C2CCN([C@@H]3COC4(C3)CN(c3ncco3)C4)CC2)c1 [Example 4E, (S)-7-(4-(5-fluoro-2-((tetrahydro-2H-pyran-4-yl)oxy)phenyl)piperidin-1-yl)-2-(oxazol-2-yl)-5-oxa-2-azaspiro[3.4]octane]
10 | > 25000 | 26 | 0 | > 25 | 0 | > 25 |  |  |  | COc1ccc(Cl)cc1C1CCN([C@@H]2COC3(C2)CN(c2ncns2)C3)CC1 [Example 5A, (S)-7-(4-(5-chloro-2-methoxyphenyl)piperidin-1-yl)-2-(1,2,4-thiadiazol-5-yl)-5-oxa-2-azaspiro[3.4]octane]
